Source: ChEMBL document CHEMBL5038667, “Discovery of an Amino Acid-Modified Near-Infrared Aza-BODIPY Photosensitizer as an Immune Initiator for Potent Photodynamic Therapy in Melanoma” (J Med Chem, 2022)
In brackets after ≈: the same amount, converted by molar mass. Activity calls are given as the source filed them. No cut-off for these calls is given here.

What was measured:
[1] = Toxicity in C57BL/6 mouse harboring mouse B16-F10 cells assessed as change in body weight at 2 mg/kg, iv irradiated with 60 J/cm^2 laser light measured upto 14 days; format: organism-based; conditions: in vivo, 336 h, time <=14 day
[2] = Biodistribution in spleen of C57BL/6 mouse harboring mouse B16-F10 cells at 2 mg/kg, iv measured after 12 hrs by flourescence imaging assay; format: ADME, organism-based; conditions: in vivo
B16-F10 [3] = assay: Induction of apoptosis in mouse B16-F10 cells assessed as early apoptotic cells at 10 nM incubated for 16 hrs followed by irradiated with 54 J/cm^2 light dose by Annexin V-FITC/PI based flow cytometric analysis (reference value: 6.48 %); format: functional
B16-F10 [4] = assay: Induction of apoptosis in mouse B16-F10 cells assessed as necrotic cells at 50 nM incubated for 16 hrs followed by irradiated with 54 J/cm^2 light dose by Annexin V-FITC/PI based flow cytometric analysis (reference value: 3.75 %); format: functional
B16-F10 [5] = assay: Photodynamic therapy in mouse B16-F10 cells implanted in C57BL/6 mouse model assessed as increase in infiltration of CD8+ T cells by APC/FITC/PE staining based flow cytometric analysis (reference value: 3.68 %); format: functional
[6] = Drug localisation in lysosome of human A-375 cells at 5 uM incubated for 16 hrs by Lyso Tracker Green based confocal laser scanning microscopy analysis; format: ADME, subcellular; conditions: a-375, 16 h
[7] = Aqueous solubility in PBS; format: physicochemical; conditions: buffer
B16-F10 [8] = assay: Induction of apoptosis in mouse B16-F10 cells assessed as early apoptotic cells at 50 nM incubated for 16 hrs followed by irradiated with 54 J/cm^2 light dose by Annexin V-FITC/PI based flow cytometric analysis (reference value: 6.48 %); format: functional
[9] = Phototoxicity against mouse B16-F10 cells assessed as reduction in cell viability incubated for 16 hrs followed by irradiated with 54 J/cm^2 of light dose and further incubated for 24 hrs by CCK-8 assay; format: toxicity, cell-based; conditions: B16-F10, light or radiation study
[10] = Phototoxicity against human A-375 cells assessed as reduction in cell viability incubated for 16 hrs followed by irradiated with 54 J/cm^2 of light dose and further incubated for 24 hrs by CCK-8 assay; format: toxicity, cell-based; conditions: A-375, light or radiation study
[11] = Biodistribution in liver of C57BL/6 mouse harboring mouse B16-F10 cells at 2 mg/kg, iv measured after 12 hrs by flourescence imaging assay; format: ADME, organism-based; conditions: in vivo
B16-F10 [12] = assay: Induction of apoptosis in mouse B16-F10 cells assessed as late apoptotic cells at 10 nM incubated for 16 hrs followed by irradiated with 54 J/cm^2 light dose by Annexin V-FITC/PI based flow cytometric analysis (reference value: 2.32 %); format: functional
A-375 = assay: Induction of ROS generation in human A-375 cells assessed as cells with high intracellular ROS levels at 10 nM incubated for 16 hrs followed by irradiated with 54 J/cm2 light dose by H2DCFDA fluorescent probe based flow cytometry method (reference value: 2.09 %); format: functional
B16-F10 [13] = assay: Dark toxicity against mouse B16-F10 cells assessed as reduction in cell viability incubated for 16 hrs by CCK-8 assay; format: cell-based; conditions: B16-F10, 16 h
B16-F10 [14] = assay: Antitumor activity against mouse B16-F10 cells implanted in C57BL/6 mouse assessed as tumor destruction at 2 mg/kg, iv irradiated with 60 J/cm^2 laser light measured after 14 days by hematoxylin and eosin based microscopic analysis; format: functional, organism-based; conditions: time 14.0 day
B16-F10 [15] = assay: Induction of apoptosis in mouse B16-F10 cells assessed as viable cells at 10 nM incubated for 16 hrs followed by irradiated with 54 J/cm^2 of light dose by Annexin V-FITC/PI based flow cytometric analysis (reference value: 87.45 %); format: functional; conditions: B16-F10, light or radiation study, read-out: Activity
[16] = Biodistribution in whole body of C57BL/6 mouse harboring B16-F10 cells at 2 mg/kg, iv measured after 12 hrs by flourescence imaging assay; format: ADME, organism-based; conditions: in vivo
B16-F10 [17] = assay: Induction of ROS generation in mouse B16-F10 cells assessed as cells with high intracellular ROS levels at 100 nM incubated for 16 hrs followed by irradiated with 54 J/cm^2 of light dose by H2DCFDA fluorescent probe based flow cytometry method (reference value: 1.96 %); format: functional
B16-F10 [18] = assay: Induction of ROS generation in mouse B16-F10 cells assessed as cells with high intracellular ROS levels at 20 nM incubated for 16 hrs followed by irradiated with 54 J/cm^2 of light dose by H2DCFDA fluorescent probe based flow cytometry method (reference value: 1.96 %); format: functional
[19] = Drug localisation in mitochondria of mouse B16-F10 cells at 5 uM incubated for 16 hrs by Mito Tracker Green FM based confocal laser scanning microscopy analysis; format: ADME; conditions: b16-f10, 16 h
B16-F10 [20] = assay: Induction of apoptosis in mouse B16-F10 cells assessed as late apoptotic cells at 50 nM incubated for 16 hrs followed by irradiated with 54 J/cm^2 light dose by Annexin V-FITC/PI based flow cytometric analysis (reference value: 2.32 %); format: functional
B16-F10 [21] = assay: Induction of ROS generation in mouse B16-F10 cells assessed as cells with high intracellular ROS levels at 10 nM incubated for 16 hrs followed by irradiated with 54 J/cm^2 of light dose by H2DCFDA fluorescent probe based flow cytometry method (reference value: 1.96 %); format: functional
[22] = Drug elimination in C57BL/6 mouse harboring B16-F10 cells at 2 mg/kg, iv measured after 48 hrs by fluorescence imaging assay; format: ADME, organism-based; conditions: in vivo
HeLa = assay: Dark toxicity against human HeLa cells assessed as reduction in cell viability incubated for 16 hrs by CCK-8 assay; format: functional, cell-based
B16-F10 [23] = assay: Antitumor activity against mouse B16-F10 cells implanted in C57BL/6 mouse assessed as inhibition of tumor growth at 2 mg/kg, iv irradiated with 60 J/cm^2 laser light by IVIS imaging analysis measured upto 48 hrs; format: functional, organism-based; conditions: time hrs <=48
B16-F10 [24] = assay: Photodynamic therapy in mouse B16-F10 cells implanted in C57BL/6 mouse model assessed as increase infiltration of CD8+ T cells measured after 3 days by immunofluorescence staining based analysis; format: functional, cell-based; conditions: time 3.0 day
[25] = Phototoxicity against human HeLa cells assessed as reduction in cell viability incubated for 16 hrs followed by irradiated with 54 J/cm^2 of light dose and further incubated for 24 hrs by CCK-8 assay; format: toxicity, cell-based; conditions: light or radiation study
[26] = Biodistribution in lungs of C57BL/6 mouse harboring mouse B16-F10 cells at 2 mg/kg, iv measured after 12 hrs by flourescence imaging assay; format: ADME, organism-based, Lung; conditions: in vivo
[27] = Biodistribution in heart of C57BL/6 mouse harboring mouse B16-F10 cells at 2 mg/kg, iv measured after 12 hrs by flourescence imaging assay; format: ADME, organism-based; conditions: in vivo
B16-F10 [28] = assay: Antitumor immunity against mouse B16-F10 cells assessed as surface translocation of CRT at 50 nM incubated for 16 hrs followed by irradiated with 54 J/cm^2 light dose and further incubated for 6 hrs by Alexa Fluor 488/Hoechst 33342 staining based confocal laser scanning microscopy; format: functional, cell-based
[29] = Drug localisation in endoplasmic reticulum of mouse B16-F10 cells at 5 uM incubated for 16 hrs by ER Tracker Green based confocal laser scanning microscopy analysis; format: ADME, subcellular; conditions: b16-f10, 16 h

COc1ccc(C2=[N+]3C(=Nc4c(-c5ccccc5)c5c(n4[B-]3(F)F)-c3ccc(OCC(=O)N[C@@H](CC(=O)O)C(=O)O)cc3CC5)C(c3ccccc3)=C2I)cc1
Activity [1]: Non-Toxic
Drug uptake [2]: Active
Activity (B16-F10 [3]): 2.93%
Activity (B16-F10 [4]): 3.51%
Activity (B16-F10 [5]): 7.98%
Drug uptake [6]: Active
solubility [7]: 165 µM (≈ 144 µg/mL)
Activity (B16-F10 [8]): 40.92%
IC50 [9]: 65 nM
IC50 [10]: 81 nM
Drug uptake [11]: Active
Activity (B16-F10 [12]): 7.3%
Activity (A-375): 2.48%
IC50 (B16-F10 [13]): > 250000 nM
Activity (B16-F10 [14]): Active
viability at 0.01 µM (B16-F10 [15]): 88.9%
Drug uptake [16]: Active
Activity (B16-F10 [17]): 70.29%
Activity (B16-F10 [18]): 6.77%
Drug uptake [19]: Active
Activity (B16-F10 [20]): 13.7%
Activity (B16-F10 [21]): 2.67%
Drug excretion [22]: Active
IC50 (HeLa): > 250000 nM
Activity (B16-F10 [23]): Active
Activity (B16-F10 [24]): Active
IC50 [25]: 21 nM
Drug uptake [26]: Active
Drug uptake [27]: Active
Activity (B16-F10 [28]): Active
Drug uptake [29]: Active
